This note sets out measurements from patent publication US4720546A (priority 1984, dated 1988).

Data set [1] in a line: in vivo. Particulars: mouse, po.
Data set [2] has as its system Histoplasma capsulatum. Nature of the data set: microbe, parasite or virus in culture. It is filed as cell-based. To be noted: 168 h, read-out: MIC values, H. capsulatum.
In data set [3] the test system is Candida albicans. Nature of the data set: fungistatic activity test in Casiton agar test tubes (MIC), Candida albicans. Particulars: 48 h, read-out: MIC values, C. albicans. It is filed as cell-based.

Values after ≈ are worked out from the molar mass of the structure shown.

In data set [1], `Clc1ccc([C@@]2(Cn3ccnc3)OC[C@H](COc3ccc(N4CCSCC4)cc3)O2)c(Cl)c1` (relative stereo) [CH CH 0, cis-4-[4-[[2-(2,4-dichlorophenyl)-2-[(imidazol-1-yl)methyl]-1,3-dioxolan-4-yl]methoxy]phenyl]tetrahydro-4H-1,4-thiazine] registered an LD50 of roughly 1000 mg/kg. In addition, the MIC in data set [2] was 10 µg/mL (≈ 19.7 µM); in data set [3], 1 to 100 µg/mL (≈ 1.97 to 197 µM).
The corresponding values for `[O-][S+]1CCN(c2ccc(OC[C@H]3CO[C@](Cn4ccnc4)(c4ccc(Cl)cc4Cl)O3)cc2)CC1` (relative stereo) [CH CH 1, cis-4-[4-[[2-(2,4-dichlorophenyl)-2-[(imidazol-1-yl)methyl]-1,3-dioxolan-4-yl]methoxy]-phenyl]-tetrahydro-4H-1,4-thiazine 1-oxide] are roughly 1000 mg/kg, 10 µg/mL (≈ 19.1 µM) and 1 to 100 µg/mL (≈ 1.91 to 191 µM).
Molecule `O=S1(=O)CCN(c2ccc(OC[C@H]3CO[C@](Cn4ccnc4)(c4ccc(Cl)cc4Cl)O3)cc2)CC1` (relative stereo) [CH CH 2, cis-4-[4-[[2-(2,4-dichlorophenyl)-2-[(imidazol-1-yl)methyl]-1,3-dioxolan-4-yl]methoxy]phenyl]-tetrahydro-4H-1,4-thiazine 1,1-dioxide] gave an LD50 in data set [1] of no less than 4000 mg/kg. In addition, the values for the MIC in data set [2] and in data set [3] were 1 µg/mL (≈ 1.86 µM) and 0.1 to 1 µg/mL (≈ 0.186 to 1.86 µM), respectively.
For `Clc1ccc([C@@]2(Cn3cncn3)OC[C@H](COc3ccc(N4CCSCC4)cc3)O2)c(Cl)c1` (relative stereo) [CH N 0, cis-4-[4-[[2-(2,4-dichlorophenyl)-2-[(1H-1,2,4-triazol-1-yl)methyl]-1,3-dioxolan-4-yl]methoxy]phenyl]-tetrahydro-4H-1,4-thiazine], the LD50 in data set [1] was no less than 5000 mg/kg. Also, the MIC in data set [2] was 10 µg/mL (≈ 19.7 µM); in data set [3], 0.1 to 1 µg/mL (≈ 0.197 to 1.97 µM).
`[O-][S+]1CCN(c2ccc(OC[C@H]3CO[C@](Cn4cncn4)(c4ccc(Cl)cc4Cl)O3)cc2)CC1` (relative stereo) [CH N 1, cis-4-[4-[[2-(2,4-dichlorophenyl)-2-[(1H-1,2,4-triazol-1-yl)methyl]-1,3-dioxolan-4-yl]methoxy]phenyl]-tetrahydro-4H-1,4-thiazine 1-oxide]: in data set [1], the 50% lethal dose (LD50) is roughly 4000 mg/kg. Further, the MIC in data set [2] is 100 µg/mL (≈ 191 µM); in data set [3] it was 1 to 100 µg/mL (≈ 1.91 to 191 µM).
For `O=S1(=O)CCN(c2ccc(OC[C@H]3CO[C@](Cn4cncn4)(c4ccc(Cl)cc4Cl)O3)cc2)CC1` (relative stereo) [CH N 2, cis-4-[4-[[2-(2,4-dichlorophenyl)-2-[(1H-1,2,4-triazol-1-yl)methyl]-1,3-dioxolan-4-yl]methoxy]phenyl]-tetrahydro-4H-1,4-thiazine 1,1-dioxide] the same measures were no less than 5000 mg/kg, 1 µg/mL (≈ 1.85 µM) and 0.1 to 10 µg/mL (≈ 0.185 to 18.5 µM).
In data set [1], `O=S1(=O)CCN(c2ccc(OC[C@H]3CO[C@](Cn4cnnc4)(c4ccc(Cl)cc4Cl)O3)cc2)CC1` (relative stereo) [N CH 2, cis-4-[4-[[2-(2,4-dichlorophenyl)-2-[(4H-1,2,4-triazol-4-yl)methyl]-1,3-dioxolan--4-yl]methoxy]phenyl]-tetrahydro-4H-1,4-thiazine 1,1-dioxide] showed an LD50 of no less than 4000 mg/kg. Also, the MIC in data set [2] is greater than 100 µg/mL; in data set [3], 0.1 to 10 µg/mL (≈ 0.185 to 18.5 µM).
